Tested on: SEM cells
Experiment: cell viability relative to DMSO control; higher = less cytotoxic
Conditions: 48 h
Outline: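 Three leukemia lines were tested: NOMO1 and SEM at 500 cells/well and P12-Ichikawa at 1000 cells/well. Each was adapted for at least four passages in each medium and seeded in 5 μl in 1536-well plates, and library compounds in DMSO were pin-dosed from 47 μM to 0.79 nM in 11 threefold steps. After 48 h at 37°C, CellTiter-Glo One luminescence was read. Viability is a percentage relative to DMSO wells on each plate, with cell-free wells as background.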

[1] = HPLM + 10% dialyzed FBS, 0.000781 µM
[2] = HPLM + 10% dialyzed FBS, 0.00234 µM
[3] = HPLM + 10% dialyzed FBS, 0.00702 µM
[4] = HPLM + 10% dialyzed FBS, 0.0211 µM
[5] = HPLM + 10% dialyzed FBS, 0.0632 µM
[6] = HPLM + 10% dialyzed FBS, 0.19 µM
[7] = HPLM + 10% dialyzed FBS, 0.569 µM
[8] = HPLM + 10% dialyzed FBS, 1.71 µM
[9] = HPLM + 10% dialyzed FBS, 5.12 µM
[10] = HPLM + 10% dialyzed FBS, 15.4 µM
[11] = HPLM + 10% dialyzed FBS, 46.1 µM
[12] = RPMI 5 mM glucose + 10% FBS, 0.000781 µM
[13] = RPMI 5 mM glucose + 10% FBS, 0.00234 µM
[14] = RPMI 5 mM glucose + 10% FBS, 0.00702 µM
[15] = RPMI 5 mM glucose + 10% FBS, 0.0211 µM
[16] = RPMI 5 mM glucose + 10% FBS, 0.0632 µM
[17] = RPMI 5 mM glucose + 10% FBS, 0.19 µM
[18] = RPMI 5 mM glucose + 10% FBS, 0.569 µM
[19] = RPMI 5 mM glucose + 10% FBS, 1.71 µM
[20] = RPMI 5 mM glucose + 10% FBS, 5.12 µM
[21] = RPMI 5 mM glucose + 10% FBS, 15.4 µM
[22] = RPMI 5 mM glucose + 10% FBS, 46.1 µM
[23] = RPMI 5 mM glucose + 10% dialyzed FBS, 0.000781 µM
[24] = RPMI 5 mM glucose + 10% dialyzed FBS, 0.00234 µM
[25] = RPMI 5 mM glucose + 10% dialyzed FBS, 0.00702 µM
[26] = RPMI 5 mM glucose + 10% dialyzed FBS, 0.0211 µM
[27] = RPMI 5 mM glucose + 10% dialyzed FBS, 0.0632 µM
[28] = RPMI 5 mM glucose + 10% dialyzed FBS, 0.19 µM
[29] = RPMI 5 mM glucose + 10% dialyzed FBS, 0.569 µM
[30] = RPMI 5 mM glucose + 10% dialyzed FBS, 1.71 µM
[31] = RPMI 5 mM glucose + 10% dialyzed FBS, 5.12 µM
[32] = RPMI 5 mM glucose + 10% dialyzed FBS, 15.4 µM
[33] = RPMI 5 mM glucose + 10% dialyzed FBS, 46.1 µM

`O=[N+]([O-])c1cn2c(n1)OC[C@@H](OCc1ccc(OC(F)(F)F)cc1)C2` gave a cell viability [1] of 105%, a cell viability [2] of 97.3% and a cell viability [3] of 108%. The cell viability [4] was 115%, the cell viability [5] was 109% and the cell viability [6] was 101%. For the same compound, the cell viability [7] was 96.3%, the cell viability [8] was 89% and the cell viability [9] was 86.7%. It also gave a cell viability [10] of 92.4%, a cell viability [11] of 90.5% and a cell viability [12] of 120%. It also gave a cell viability [13] of 112%, a cell viability [14] of 118% and a cell viability [15] of 144%. The cell viability [16] was 117%, the cell viability [17] was 129% and the cell viability [18] was 137%. For the same compound, the cell viability [19] was 125%, the cell viability [20] was 114% and the cell viability [21] was 122%. It also gave a cell viability [22] of 132%.
For `Cc1cc(O)c2c3c4c(cc(O)c13)C(C)(C)C(=O)c1c(O)cc(O)c(c1-4)C2=O`, the cell viability [1] was 104%, the cell viability [2] was 110% and the cell viability [3] was 108%. The cell viability [4] was 91.5%, the cell viability [5] was 120% and the cell viability [6] was 114%. The cell viability [7] was 106%, the cell viability [8] was 117% and the cell viability [9] was 98.7%. It also gave a cell viability [10] of 90.8%, a cell viability [11] of 66.1% and a cell viability [23] of 91.4%. For the same compound, the cell viability [24] was 90.9%, the cell viability [25] was 92% and the cell viability [26] was 94.3%. It also gave a cell viability [27] of 110%, a cell viability [28] of 113% and a cell viability [29] of 98%. The cell viability [30] was 84.2%, the cell viability [31] was 97.4% and the cell viability [32] was 88.6%. For the same compound, the cell viability [33] was 65.5%.
Work on `Cc1ccc(NC(=O)c2ccc(CN3CCN(C)CC3)cc2)cc1Nc1nccc(-c2cccnc2)n1` yielded a cell viability [1] of 68.4%, a cell viability [2] of 92.2% and a cell viability [3] of 114%. The cell viability [4] was 101%, the cell viability [5] was 104% and the cell viability [6] was 111%. For the same compound, the cell viability [7] was 96.5%, the cell viability [8] was 101% and the cell viability [9] was 99.2%. For the same compound, the cell viability [10] was 101%, the cell viability [11] was 93.9% and the cell viability [12] was 81.2%. The cell viability [13] was 114%, the cell viability [14] was 134% and the cell viability [15] was 134%. The cell viability [16] was 124%, the cell viability [17] was 140% and the cell viability [18] was 115%. For the same compound, the cell viability [19] was 114%, the cell viability [20] was 109% and the cell viability [21] was 110%. For the same compound, the cell viability [22] was 99.4%, the cell viability [23] was 72% and the cell viability [24] was 103%. It also gave a cell viability [25] of 100%, a cell viability [26] of 94.7% and a cell viability [27] of 114%. It also gave a cell viability [28] of 107%, a cell viability [29] of 96.6% and a cell viability [30] of 112%. The cell viability [31] was 80.1%, the cell viability [32] was 100% and the cell viability [33] was 86.6%.
With `Cc1cc(Nc2ncc(Cl)c(Nc3ccccc3[S+](=O)([O-])C(C)C)n2)c(OC(C)C)cc1C1CCNCC1` the cell viability [1] was 115%, the cell viability [2] was 114% and the cell viability [3] was 119%. The cell viability [4] was 123%, the cell viability [5] was 120% and the cell viability [6] was 109%. The cell viability [7] was 96%, the cell viability [8] was 88.1% and the cell viability [9] was 69%. The cell viability [10] was 48.3%, the cell viability [11] was 5.59% and the cell viability [12] was 112%. The cell viability [13] was 114%, the cell viability [14] was 103% and the cell viability [15] was 118%. The cell viability [16] was 119%, the cell viability [17] was 101% and the cell viability [18] was 94.2%. It also gave a cell viability [19] of 101%, a cell viability [20] of 65.3% and a cell viability [21] of 50.5%. The cell viability [22] was 5.71%, the cell viability [23] was 125% and the cell viability [24] was 121%. It also gave a cell viability [25] of 104%, a cell viability [26] of 146% and a cell viability [27] of 142%. It also gave a cell viability [28] of 121%, a cell viability [29] of 110% and a cell viability [30] of 100%. The cell viability [31] was 80.9%, the cell viability [32] was 52.2% and the cell viability [33] was 6.92%.
With `CCCCN(CCCC)CCC(O)c1cc2c(Cl)cc(Cl)cc2c2cc(C(F)(F)F)ccc12` (stereo unspecified) the cell viability [1] was 92.5%, the cell viability [2] was 93.3% and the cell viability [3] was 84.3%. The cell viability [4] was 104%, the cell viability [5] was 108% and the cell viability [6] was 122%. The cell viability [7] was 36.2%, the cell viability [8] was 61.7% and the cell viability [9] was 117%. For the same compound, the cell viability [10] was 91.3%, the cell viability [11] was 109% and the cell viability [12] was 109%. It also gave a cell viability [13] of 105%, a cell viability [14] of 107% and a cell viability [15] of 115%. For the same compound, the cell viability [16] was 116%, the cell viability [17] was 141% and the cell viability [18] was 48.4%. The cell viability [19] was 52%, the cell viability [20] was 111% and the cell viability [21] was 89.7%. The cell viability [22] was 89%, the cell viability [23] was 92.1% and the cell viability [24] was 116%. It also gave a cell viability [25] of 109%, a cell viability [26] of 110% and a cell viability [27] of 105%. The cell viability [28] was 118%, the cell viability [29] was 46.2% and the cell viability [30] was 48.3%. For the same compound, the cell viability [31] was 104%, the cell viability [32] was 83.1% and the cell viability [33] was 105%.
`Clc1cccc(-c2nnnn2Cc2cccnc2)c1Cl` showed a cell viability [1] of 79.7%, a cell viability [2] of 81.9% and a cell viability [3] of 67%. It also gave a cell viability [4] of 92.9%, a cell viability [5] of 101% and a cell viability [6] of 103%. The cell viability [7] was 92.6%, the cell viability [8] was 57.7% and the cell viability [9] was 49.4%. The cell viability [10] was 50.2%, the cell viability [11] was 45% and the cell viability [12] was 101%. It also gave a cell viability [13] of 92%, a cell viability [14] of 70.1% and a cell viability [15] of 102%. It also gave a cell viability [16] of 95.3%, a cell viability [17] of 95% and a cell viability [18] of 74.6%. For the same compound, the cell viability [19] was 46.4%, the cell viability [20] was 40.4% and the cell viability [21] was 42%. The cell viability [22] was 35.9%, the cell viability [23] was 87.5% and the cell viability [24] was 85.7%. For the same compound, the cell viability [25] was 75%, the cell viability [26] was 93.4% and the cell viability [27] was 91.7%. It also gave a cell viability [28] of 99.4%, a cell viability [29] of 102% and a cell viability [30] of 62%. It also gave a cell viability [31] of 56%, a cell viability [32] of 58.4% and a cell viability [33] of 46.6%.
`Fc1cc(-c2cccc3ncc(-c4cnn(C5CCNCC5)c4)nc23)cc(F)c1CN1CCOCC1` showed a cell viability [12] of 110%, a cell viability [13] of 113% and a cell viability [14] of 107%. The cell viability [15] was 110%, the cell viability [16] was 112% and the cell viability [17] was 105%. It also gave a cell viability [18] of 103%, a cell viability [19] of 95.8% and a cell viability [20] of 27.4%. It also gave a cell viability [21] of 25.7% and a cell viability [22] of 16%.
Compound `COc1cc(N2CCC(C(N)=O)CC2)ccc1Nc1nc(N)c(Cl)c(Nc2ccccc2[S+](=O)([O-])C(C)C)n1` has a cell viability [1] of 81.4%, a cell viability [2] of 83.3% and a cell viability [3] of 87.8%. For the same compound, the cell viability [4] was 96.1%, the cell viability [5] was 82.2% and the cell viability [6] was 104%. The cell viability [7] was 97.6%, the cell viability [8] was 84.1% and the cell viability [9] was 66.5%. It also gave a cell viability [10] of 13.3%, a cell viability [11] of 3.39% and a cell viability [12] of 103%. It also gave a cell viability [13] of 109%, a cell viability [14] of 107% and a cell viability [15] of 104%. For the same compound, the cell viability [16] was 97.6%, the cell viability [17] was 108% and the cell viability [18] was 120%. The cell viability [19] was 92.9%, the cell viability [20] was 43% and the cell viability [21] was 6.28%. For the same compound, the cell viability [22] was 3.46%, the cell viability [23] was 74.8% and the cell viability [24] was 85.1%. The cell viability [25] was 94.3%, the cell viability [26] was 76.9% and the cell viability [27] was 88.5%. It also gave a cell viability [28] of 88.8%, a cell viability [29] of 99.4% and a cell viability [30] of 86%. It also gave a cell viability [31] of 69%, a cell viability [32] of 13.2% and a cell viability [33] of 2.73%.
With `CCNC(=O)C[C@@H]1\N=C(C2=CC=C(Cl)C=C2)/C3=C(C=CC(=C3)OC)[N]4C(=NN=C14)C` the cell viability [23] was 106%, the cell viability [24] was 114% and the cell viability [25] was 107%. For the same compound, the cell viability [26] was 105%, the cell viability [27] was 91.1% and the cell viability [28] was 90.2%. The cell viability [29] was 63.8%, the cell viability [30] was 42.9% and the cell viability [31] was 19.6%. It also gave a cell viability [32] of 6.54% and a cell viability [33] of 3.14%.

Reference: the supplement of paper PMC11451515
